A short description of the first data set: solvent given as SMILES. As to conditions: in C1CCCCC1.
`CN1CCCc2cc3c(C(F)(F)F)cc(=O)oc3cc21`: the emission maximum turned out to be 439 nm.
`CCCCCCCCOc1ccc2c3c(c4ccc(OCCCCCCCC)cc4c2c1)C(C)(C)c1ccccc1-3` gave an emission maximum of 390 nm.
Turning to `c1ccc(N(c2ccccc2)c2ccc3c4cccc5c(N(c6ccccc6)c6ccccc6)ccc(c6cccc2c63)c54)cc1`, the emission maximum amounted to 531 nm.
For the compound `CC(C)(C)NC1=C2C=CC=[N+]2[B-](F)(F)n2cccc21`, the emission maximum was 503 nm.
The same measure, in the same setting: the result for `CC1(C)c2cc(C#N)ccc2-c2ccc(N3c4ccccc4Oc4ccccc43)cc21` reads 433 nm; that for `C=Cc1cccc(OC)c1`, 327 nm.

The same data set, now with this note: in C1CCOC1.
Take `CSc1cc(-c2cc3cc4c5c(c3oc2=O)CCCN5CCC4)oc(=O)c1C#N`: the emission maximum turned out to be 580 nm.
The same measure, in the same setting: the result for `COc1ccc(N(c2ccc(OC)cc2)c2ccc3ccc4c(B(c5c(C)cc(C)cc5C)c5c(C)cc(C)cc5C)ccc5ccc2c3c54)cc1` reads 626 nm; that for `O=P(c1c2ccccc2cc2ccccc12)(c1c2ccccc2cc2ccccc12)c1c2ccccc2cc2ccccc12`, 452 nm; that for `c1ccc(N(c2ccccc2)c2ccc3c4cccc5c(N(c6ccccc6)c6ccccc6)ccc(c6cccc2c63)c54)cc1`, 545 nm.
Regarding `CC1(C)c2cc(C#N)ccc2-c2ccc(N3c4ccccc4Oc4ccccc43)cc21`, the emission maximum worked out at 550 nm.
For `C(=C\c1cnc2ccccc2n1)/c1ccc(N2CCCCC2)cc1`, the emission maximum is 557 nm.

Still in this data set, the particulars now being: in CC#N.
In turn, `CSc1cc(-c2cc3cc4c5c(c3oc2=O)CCCN5CCC4)oc(=O)c1C#N` gave an emission maximum of 603 nm.
Same read-out and setting: under `CN1CCCc2cc3c(C(F)(F)F)cc(=O)oc3cc21` stands 510 nm; under `O=C1c2ccccc2-c2c(-c3cc(Br)ccc3O)[nH]c(=O)n21`, 475 nm; under `c1ccc(N(c2ccccc2)c2ccc3c4cccc5c(N(c6ccccc6)c6ccccc6)ccc(c6cccc2c63)c54)cc1`, 548 nm.
The compound `c1ccc(-c2nc(-c3ccccc3)c(-c3ccccc3)[nH]2)cc1` gave an emission maximum of 387 nm.
Same read-out and setting: under `O=c1oc2ccccc2cc1C#Cc1ccccc1` stands 406 nm.
Still for that read-out and setting: under `CC1(C)c2cc(C#N)ccc2-c2ccc(N3c4ccccc4Oc4ccccc43)cc21` stands 620 nm; under `C=Cc1cccc(OC)c1`, 330 nm.
On the same count and under the same terms, the result for `C(=C\c1cnc2ccccc2n1)/c1ccc(N2CCCCC2)cc1` reads 617 nm.

Still in this data set, the particulars now being: in CC(C)=O.
The compound `CSc1cc(-c2cc3cc4c5c(c3oc2=O)CCCN5CCC4)oc(=O)c1C#N` came in with an emission maximum of 596 nm.
In the case of `COc1ccc(N(c2ccc(OC)cc2)c2ccc3ccc4c(B(c5c(C)cc(C)cc5C)c5c(C)cc(C)cc5C)ccc5ccc2c3c54)cc1`, the emission maximum was determined as 658 nm.
Take `CC(C)(C)NC1=C2C=CC=[N+]2[B-](F)(F)n2cccc21`: the emission maximum came to 492 nm.

Staying with this data set, now noted: in CCCCCC.
Regarding `O=S(=O)(c1ccccc1)c1ccc(-c2ccc3c(c2)c2cc(-c4ccc(S(=O)(=O)c5ccccc5)cc4)ccc2n3-c2ccccc2)cc1`, the emission maximum came to 377 nm.
The same measure, in the same setting: under `COc1ccc(N(c2ccc(OC)cc2)c2ccc3ccc4c(B(c5c(C)cc(C)cc5C)c5c(C)cc(C)cc5C)ccc5ccc2c3c54)cc1` stands 534 nm.

The same data set, now with this note: in CCCCCCC.
In turn, `C(=C\c1cnc2ccccc2n1)/c1ccc(N2CCCCC2)cc1` had an emission maximum of 480 nm.

Still in this data set, the particulars now being: in CCO.
The compound `CN1/C(=C/C=C(/C=C/C2=[N+](C)c3ccccc3C2(C)C)c2ccc(F)cc2)C(C)(C)c2ccccc21` came in with an emission maximum of 666 nm.
As for `N#CC(C#N)=Cc1ccc(-c2ccc(-c3nc4ccccc4s3)c(O)c2)o1`, the emission maximum is 501 nm.
The same measure, in the same setting: the result for `CN1/C(=C/C=C(/C=C/c2sc3ccccc3[n+]2C)c2ccccc2)Sc2ccccc21` reads 676 nm; that for `CN1CCCc2cc3c(C(F)(F)F)cc(=O)oc3cc21`, 515 nm.
As for `CC(C)(C)NC1=C2C=CC=[N+]2[B-](F)(F)n2cccc21`, the emission maximum is 494 nm.
The compound `CC/[NH+]=c1\cc2oc3cc(NCCO)c4ccccc4c3nc-2cc1C` gave an emission maximum of 643 nm.

The same data set, now with this note: in CCOC(C)=O.
For `CSc1cc(-c2cc3cc4c5c(c3oc2=O)CCCN5CCC4)oc(=O)c1C#N`, the emission maximum is 575 nm.
Take `CC(C)(C)NC1=C2C=CC=[N+]2[B-](F)(F)n2cccc21`: the emission maximum was determined as 498 nm.

The same data set, now with this note: in CN(C)C=O.
With `CSc1cc(-c2cc3cc4c5c(c3oc2=O)CCCN5CCC4)oc(=O)c1C#N`, the emission maximum came to 612 nm.
The same measure, in the same setting: under `O=S(=O)(c1ccccc1)c1ccc(-c2ccc3c(c2)c2cc(-c4ccc(S(=O)(=O)c5ccccc5)cc4)ccc2n3-c2ccccc2)cc1` stands 431 nm.

Staying with this data set, now noted: in CO.
The compound `CN1/C(=C/C=C(/C=C/C2=[N+](C)c3ccccc3C2(C)C)c2ccc(F)cc2)C(C)(C)c2ccccc21` yielded an emission maximum of 666 nm.
The same measure, in the same setting: the result for `CC1(C)C(/C=C/C2=C(Cl)C(=C/C=C3/N(Cc4ccc(F)cc4)c4ccccc4C3(C)C)/CCC2)=[N+](Cc2ccc(F)cc2)c2ccccc21` reads 809 nm; that for `CSc1cc(-c2cc3cc4c5c(c3oc2=O)CCCN5CCC4)oc(=O)c1C#N`, 601 nm; that for `CN1/C(=C/C=C(/C=C/c2sc3ccccc3[n+]2C)c2ccccc2)Sc2ccccc21`, 679 nm.
The same measure, in the same setting: the result for `O=S(=O)(c1ccccc1)c1ccc(-c2ccc3c(c2)c2cc(-c4ccc(S(=O)(=O)c5ccccc5)cc4)ccc2n3-c2ccccc2)cc1` reads 434 nm; that for `O=C1c2ccccc2-c2c(-c3cc(Br)ccc3O)[nH]c(=O)n21`, 492 nm; that for `c1ccc(-c2nc(-c3ccccc3)c(-c3ccccc3)[nH]2)cc1`, 386.5 nm.
On the same count and under the same terms, under `CC(C)(C)NC1=C2C=CC=[N+]2[B-](F)(F)n2cccc21` stands 491 nm; under `CC1(C)C(/C=C/C=C/C=C/C=C2/N(CCCCCC(=O)O)c3ccc(S(=O)(=O)[O-])cc3C2(C)C)=[N+](CCCCS(=O)(=O)[O-])c2ccc(S(=O)(=O)[O-])cc21`, 774 nm.
In the case of `CC1(C)C(/C=C/C2=C(Oc3ccc(CCN=C=S)cc3Br)C(=C/C=C3/N(CCCS(=O)(=O)[O-])c4ccccc4C3(C)C)/CCC2)=[N+](CCCS(=O)(=O)[O-])c2ccccc21`, the emission maximum is recorded as 798 nm.
`CCN(C)c1ccc(C2=C3C(C)=CC(C)=[N+]3[B-](F)(F)n3c(C)cc(C)c32)cc1` registered an emission maximum of 513 nm.

The data set is the same for the next values; noted with them: in CS(C)=O.
Take `CN1/C(=C/C=C(/C=C/C2=[N+](C)c3ccccc3C2(C)C)c2ccc(F)cc2)C(C)(C)c2ccccc21`: the emission maximum is 669 nm.
In turn, `CSc1cc(-c2cc3cc4c5c(c3oc2=O)CCCN5CCC4)oc(=O)c1C#N` returned an emission maximum of 616 nm.
With `CN1/C(=C/C=C(/C=C/c2sc3ccccc3[n+]2C)c2ccccc2)Sc2ccccc21`, the emission maximum amounted to 683 nm.
Compound `CN1/C(=C/C=C/C2=[N+](C)c3ccccc3C2(C)C)Sc2ccccc21` displayed an emission maximum of 569 nm.

The values are drawn from the Deep4Chem optical property database.
